Source: patent US6372297B1, “Wood preservative oxathiazines” (Uniroyal Chemical Company, Inc., priority 1993, dated 2002)

Key:
[1] = tested on: blue-stain fungi and molds; experiment: Activity against blue-stain fungi and molds on a stick test on vermiculite (paint film); set-up: key to Surface score of wooden sticks treated with paint formulation, C. cladosporioides / Surface score of wooden sticks treated with paint formulation, P. purpurogenum / Surface score of wooden sticks treated with paint formulation, P. violacea / Surface score of wooden sticks treated with paint formulation, R rubra (y) / Surface score of wooden sticks treated with paint formulation, S. chartarum / Surface score of wooden sticks treated with paint formulation, A. versicolor / Surface score of wooden sticks treated with paint formulation, A. pullulans: 0: No growth; Trace of growth of up to 1% coverage of the test inoculated area; 2: Growth covering between 1 and 10% of the inoculated test area; Growth covering between 10 and 30% of the inoculated test area; 4: Growth covering between 30 and 70% of the inoculated test area; 5: Growth covering more than 70t of the inoculated test area; conditions: 12 weeks on vermiculite; for Surface score of wooden sticks treated with paint formulation, R rubra (y): R rubra (yeast)
Protocol: Beech sticks (73×18×2 mm) Fagus sylvatica were painted, allowed to dry, and sterilized by γ-radiation (1.2 mRad). […] The coated sticks prepared above were then dipped in a spore suspension of pure culture of each fungus. Seven sticks each were placed in autoclaved Petri dishes (200 mm in diameter, 30 mm in height) containing 300 ml of vermiculite and 120 ml of water, and incubated for 12 weeks. The surfaces of the sticks were then examined for the growth of fungus and were evaluated according to the following scoring system: 0: No growth 1: […] 2: […] 3: […] 4. […] 5. Growth covering more than 70t of the inoculated test area.

[2] = tested on: mixed spore suspension of blue-stain fungus and molds; experiment: Activity against blue-stain fungi and molds in a mold cabinet test (BS3900: Part G6); set-up: key: 0: No growth; Trace of growth of up to 1% coverage of the test inoculated area; 2: Growth covering between 1 and 10% of the inoculated test area; Growth covering between 10 and 30% of the inoculated test area; 4: Growth covering between 30 and 70% of the inoculated test area; 5: Growth covering more than 70t of the inoculated test area
Protocol: Using the methods described in BS3900: Part G6: 1989, British Standard Methods of test for paints, “Assessment of resistance to fungal growth”, representative compounds of this invention were tested for activity against blue-stain fungus and molds in a mold cabinet test. In brief, sticks of Scots pine (Pinus sylvestris) measuring 75×100×10 mm, were painted, allowed to dry, and sterilized by […] (1.2 mRad). […] The sticks were then with each solution. The inoculation consisted of dipping the sticks in a mixed spore suspension, then placing them in a mold chamber and incubating them for 12 weeks. The surfaces were evaluated according the following score system: 0: No growth 1: […] 2: […] 3: […] 4. […] 5. Growth covering more than 70% of the inoculated test area.

[3] = tested on: mixed spore suspension: Aureobasidium pullulans, Aspergillus amstelodami, Ceratocystis pilifera, Cladosporium sp., Penicillium sp., Sclerophomas entoxylina …; experiment: Control of molds and sapstain fungi in mini-board test; set-up: key to Surface score of treated mini-boards, 3 week incubation, 1500 ppm / Surface score of treated mini-boards, 3 week incubation, 2500 ppm: 0: Free of fungal growth; 1: Traces of fungal growth; 2: Little fungal growth; 3: Moderate fungal growth; 4: Vigorous to maximum growth (all surfaces covered with fungal growth)
Description: Representative compounds of this invention to be tested, were suspended in an aqueous solution containing 7.5% GENAPOL X 080™ (Hoechst-Celanese Corporation), and 20% propylene glycol monomethyl ether, to prepare the test solutions. […]
Deep frozen boards (300×50×10 mm) of freshly felled sapwood of Pinus sylvestrus (mini-boards) were thawed at room temperature. One half of each mini-board was immersed in a test solution for 20 seconds. The mini-boards were then sprayed with mixed spore suspension containing the following fungi:
Sclerophomas entoxylina, and
and stored in incubation boxes at 25° C. and at 100% relative humidity, for three weeks. For each compound tested, each concentration of test solution was applied to five different mini-boards.
The efficacy of the test compounds was determined by comparing the fungal growth on both the treated and untreated parts of the mini-boards.
The degree of infection was scored according to the following scale:
1=Traces of fungal growth
4=Vigorous to maximum growth (all surfaces covered with fungal growth)

Structure (SMILES)	Surface score of wooden sticks treated with paint formulation, A. pullulans ([1]; 0.15% a.i. in paint)	Surface score of wooden sticks treated with paint formulation, A. pullulans ([1]; 0.3% a.i. in paint)	Surface score of wooden sticks treated with paint formulation, A. versicolor ([1]; 0.15% a.i. in paint)	Surface score of wooden sticks treated with paint formulation, A. versicolor ([1]; 0.3% a.i. in paint)	Surface score of wooden sticks treated with paint formulation, C. cladosporioides ([1]; 0.15% a.i. in paint)	Surface score of wooden sticks treated with paint formulation, C. cladosporioides ([1]; 0.3% a.i. in paint)	Surface score of wooden sticks treated with paint formulation, P. purpurogenum ([1]; 0.15% a.i. in paint)	Surface score of wooden sticks treated with paint formulation, P. purpurogenum ([1]; 0.3% a.i. in paint)	Surface score of wooden sticks treated with paint formulation, P. violacea ([1]; 0.15% a.i. in paint)	Surface score of wooden sticks treated with paint formulation, P. violacea ([1]; 0.3% a.i. in paint)	Surface score of wooden sticks treated with paint formulation, R rubra (y) ([1]; 0.15% a.i. in paint)	Surface score of wooden sticks treated with paint formulation, R rubra (y) ([1]; 0.3% a.i. in paint)	Surface score of wooden sticks treated with paint formulation, S. chartarum ([1]; 0.15% a.i. in paint)	Surface score of wooden sticks treated with paint formulation, S. chartarum ([1]; 0.3% a.i. in paint)	Surface score of wooden sticks treated with paint formulation, U. atrum ([1]; 0.15% a.i. in paint)	Surface score of wooden sticks treated with paint formulation, U. atrum ([1]; 0.3% a.i. in paint)	Surface score in a paint formulation in a mold cabinet test, 6 weeks ([2]; 0.15% in water-based paint)	Surface score in a paint formulation in a mold cabinet test, 12 weeks ([2]; 0.15% in water-based paint)	Surface score in a paint formulation in a mold cabinet test, 6 weeks ([2]; 0.3% in water-based paint)	Surface score in a paint formulation in a mold cabinet test, 12 weeks ([2]; 0.3% in water-based paint)	further results
Cc1ccsc1C1=NOCCS1(=O)=O [Compound 37]	3 (Growth covering between 10 and 30% of the inoculated test area)	2 (Growth covering between 1 and 10% of the inoculated test area)	2 (Growth covering between 1 and 10% of the inoculated test area)	1 (Trace of growth of up to 1% coverage of the test inoculated area)	3 (Growth covering between 10 and 30% of the inoculated test area)	0	3 (Growth covering between 10 and 30% of the inoculated test area)	1 (Trace of growth of up to 1% coverage of the test inoculated area)	5 (Growth covering more than 70t of the inoculated test area)	4 (Growth covering between 30 and 70% of the inoculated test area)	4 (Growth covering between 30 and 70% of the inoculated test area)	3 (Growth covering between 10 and 30% of the inoculated test area)	1 (Trace of growth of up to 1% coverage of the test inoculated area)	0	4 (Growth covering between 30 and 70% of the inoculated test area)	3 (Growth covering between 10 and 30% of the inoculated test area)	4.0	5.0	0	0	Surface score of treated mini-boards, 3 week incubation, 1500 ppm [3]: 0; Surface score of treated mini-boards, 6 week incubation, 1500 ppm [3]: 0.8; Surface score of treated mini-boards, 3 week incubation, 2500 ppm [3]: 0; Surface score of treated mini-boards, 6 week incubation, 2500 ppm [3]: 0.4
[O-][S+]1CCON=C1c1cc(Br)cs1 (stereo not drawn) [Compound 41]	0	0	0	0	0	0	2 (Growth covering between 1 and 10% of the inoculated test area)	1 (Trace of growth of up to 1% coverage of the test inoculated area)	4 (Growth covering between 30 and 70% of the inoculated test area)	3 (Growth covering between 10 and 30% of the inoculated test area)	3 (Growth covering between 10 and 30% of the inoculated test area)	0	4 (Growth covering between 30 and 70% of the inoculated test area)	0	3 (Growth covering between 10 and 30% of the inoculated test area)	1 (Trace of growth of up to 1% coverage of the test inoculated area)	0	2.0	0.5	3.0	Surface score of treated mini-boards, 3 week incubation, 1500 ppm [3]: 0.6; Surface score of treated mini-boards, 6 week incubation, 1500 ppm [3]: 2.4; Surface score of treated mini-boards, 3 week incubation, 2500 ppm [3]: 0.2; Surface score of treated mini-boards, 6 week incubation, 2500 ppm [3]: 1.6
O=S1(=O)CCON=C1c1cc(Br)cs1 [Compound 42]	2 (Growth covering between 1 and 10% of the inoculated test area)	1 (Trace of growth of up to 1% coverage of the test inoculated area)	2 (Growth covering between 1 and 10% of the inoculated test area)	1 (Trace of growth of up to 1% coverage of the test inoculated area)	2 (Growth covering between 1 and 10% of the inoculated test area)	1 (Trace of growth of up to 1% coverage of the test inoculated area)	4 (Growth covering between 30 and 70% of the inoculated test area)	2 (Growth covering between 1 and 10% of the inoculated test area)	4 (Growth covering between 30 and 70% of the inoculated test area)	3 (Growth covering between 10 and 30% of the inoculated test area)	3 (Growth covering between 10 and 30% of the inoculated test area)	1 (Trace of growth of up to 1% coverage of the test inoculated area)	3 (Growth covering between 10 and 30% of the inoculated test area)	2 (Growth covering between 1 and 10% of the inoculated test area)	5 (Growth covering more than 70t of the inoculated test area)	3 (Growth covering between 10 and 30% of the inoculated test area)	1.5	3.5	0.5	3.0	Surface score of treated mini-boards, 3 week incubation, 1500 ppm [3]: 0; Surface score of treated mini-boards, 6 week incubation, 1500 ppm [3]: 2.0; Surface score of treated mini-boards, 3 week incubation, 2500 ppm [3]: 0; Surface score of treated mini-boards, 6 week incubation, 2500 ppm [3]: 2.6
